“And” between values parts separate entries of the source, which are not always exact repeats. Equal entries are not always repeated. Structures can show the parent of a compound that is named as a salt.
Legend:
[1] = test system: Pigweed; experiment: Pre-emergence herbicide test, pigweed; assay type: in vivo, Amaranthus retroflexus
Experimental: (§1) In this evaluation, each compound to be tested was dissolved in a 1:1 mixture of acetone and ethanol containing a small amount of Toximul R and Toximul S (each a sulfonate/nonionic blend produced by Stepan Chemical Company, Northfield, Illinois). The solution was then diluted with deionized water to a composition of the following concentrations, by weight: Plant species used as indicators of herbicidal activity were planted in galvanized pans (flats) 31.5 cm. long, 21.5 cm. wide, and 8.0 cm. deep. The bottoms of the flats had holes to facilitate drainage. The soil used was a 1:1 ratio by volume of masonry sand and shredded top soil. Seeds of seven indicator species were planted in rows perpendicular to the long axis of the flat, one species per row, and covered with 0.5 to 1.0 cm. of sterilized soil. Indicator species and approximate number of seeds planted were as follows: Flats that were to receive preemergence treatments were planted one day prior to, or on the same day treatments were applied. Flats that were to receive postemergence treatments were planted 9 days prior to treatment and placed in a growth chamber until the day of treatment. In the growth chamber, flats received 12 to 18 hours of light per day and were subject to temperatures of 75° to 85° F. The formulated test compound was applied uniformly to the indicator species with a modified DeVilbiss atomizer using air pressure of 3 to 5 psi. Each flat received 12.5 ml. of spray solution which was equal to 200 gallons/acre total spray volume. Plants were maintained in a greenhouse after treatment. Herbicidal effects of chemicals were evaluated by two injury rating systems 18 days after preemergence applications and 14 days after postemergence applications. The degree of plant injury was based on a 1 to 5 scale and a single numerical rating was assigned to each test species as follows: […]

[2] = test system: Foxtail; experiment: Post-emergence herbicide test, foxtail; assay type: in vivo, Setaria italica
Experimental: as §1

[3] = test system: Pigweed; experiment: Post-emergence herbicide test, pigweed; assay type: in vivo, Amaranthus retroflexus
Experimental: as §1

[4] = test system: Large Crabgrass; experiment: Post-emergence herbicide test, large crabgrass; assay type: in vivo, Digitaria sanguinalis
Experimental: as §1

[5] = test system: Foxtail; experiment: Pre-emergence herbicide test, foxtail; assay type: in vivo, Setaria italica
Experimental: as §1

[6] = test system: Zinnia; experiment: Pre-emergence herbicide test, zinnia; assay type: in vivo, Zinnia elegans
Experimental: as §1

[7] = test system: Velvetleaf; experiment: Post-emergence herbicide test, velvetleaf; assay type: in vivo, Abutilon theophrasti
Experimental: as §1

[8] = test system: Large Crabgrass; experiment: Pre-emergence herbicide test, large crabgrass; assay type: in vivo, Digitaria sanguinalis
Experimental: as §1

[9] = test system: Zinnia; experiment: Post-emergence herbicide test, zinnia; assay type: in vivo, Zinnia elegans
Experimental: as §1

[10] = test system: Corn; experiment: Post-emergence herbicide test, corn; assay type: in vivo, Zea mays
Experimental: as §1

[11] = test system: Velvetleaf; experiment: Pre-emergence herbicide test, velvetleaf; assay type: in vivo, Abutilon theophrasti
Experimental: as §1

[12] = test system: Corn; experiment: Pre-emergence herbicide test, corn; assay type: in vivo, Zea mays
Experimental: as §1

[13] = test system: Morning-glory; experiment: Post-emergence herbicide test, morningglory; assay type: in vivo, Ipomoea purpurea
Experimental: as §1

[14] = test system: Mexican bean beetle; experiment: Mexican bean beetle test; assay type: in vivo, Epilachna varivestis; details: 4 days; for Mexican Bean Beetle Stom. (mortality rating): ranges in brackets are in %
Experimental: In this evaluation, each compound to be tested was dissolved in a 1:1 mixture of acetone and ethanol containing a small amount of Toximul R and Toximul S (each a sulfonate/nonionic blend produced by Stephan Chemical Company, Northfield, Ill.). The solution was then diluted with distilled water to a concentration of 1000 ppm of test compound.
This test was conducted with second instar larvae of Epilachna varivestis Mulsant, order Coleoptera, family Coccinellidae. Larvae for the test, of uniform size and not molting, were picked by hand from flats of Bountiful snap beans on which they were grown and were placed in 100×20 mm plastic petri dishes for testing. Five larvae were used per replicate.
Two 4- to 6-day-old Bountiful green bean primry leaves (approximately 6 sq. in. of leaf surface) were used for each replicate. Two replicates were run per compound.
[…] […] The nozzle of the atomizer was held 12 to 18 inches from the leaves and was supplied with 5-6 psi air pressure. The atomizer was rinsed with acetone after each compound was sprayed. The plants were allowed to dry. The leaves were then cut from the plants and placed in the petri dishes containing the bean beetle larvae. A small wad of wet cellucotton was added to each dish to help prevent the leaves from wilting.
After 4 days, a mortality count was made and the amount of feeding was noted. Moribund larvae were counted as dead.

With `O=[N+]([O-])c1cc(C(F)(F)F)cc2c1NC(O)(C(F)(F)C(F)F)N2` (stereo not shown) [Example 2, 2-Hydroxy-2-(1,1,2,2-Tetrafluoroethyl)-4-Nitro-6-(Trifluoromethyl)Benzimidazoline, Sodium Salt, and Hydrate] the plant injury rating ([1]; 1/2 lb/A) was 2S, the plant injury rating ([1]; 1/4 lb/A) was 1 (no injury) and the plant injury rating ([1]; 2 lb/A) was 4SR. It also gave a plant injury rating ([1]; 4 lb/A) of 4RS, a plant injury rating ([1]; 8 lb/A) of 5D and a plant injury rating ([2]; 1/2 lb/A) of 3BS. It also gave a plant injury rating ([2]; 1/4 lb/A) of 3BS, a plant injury rating ([2]; 1 lb/A) of 4BS and a plant injury rating ([2]; 2 lb/A) of 4BS. It also gave a plant injury rating ([2]; 4 lb/A) of 4BS, a plant injury rating ([2]; 8 lb/A) of 5D and a plant injury rating ([3]; 1/2 lb/A) of 4BS. The plant injury rating ([3]; 1/4 lb/A) was 3BS, the plant injury rating ([3]; 1 lb/A) was 5D and the plant injury rating ([3]; 2 lb/A) was 5D. The plant injury rating ([3]; 4 lb/A) was 5D, the plant injury rating ([3]; 8 lb/A) was 5D and the plant injury rating ([4]; 1/2 lb/A) was 3BS. It also gave a plant injury rating ([4]; 1/4 lb/A) of 2BS, a plant injury rating ([4]; 1 lb/A) of 4BS and a plant injury rating ([4]; 2 lb/A) of 5D. For the same compound, the plant injury rating ([4]; 4 lb/A) was 5D, the plant injury rating ([4]; 8 lb/A) was 5D and the plant injury rating ([5]; 1/2 lb/A) was 1 (no injury). The plant injury rating ([5]; 1/4 lb/A) was 1 (no injury), the plant injury rating ([5]; 1 lb/A) was 1 (no injury) and the plant injury rating ([5]; 2 lb/A) was 2S. For the same compound, the plant injury rating ([5]; 4 lb/A) was 2S, the plant injury rating ([5]; 8 lb/A) was 5N and the plant injury rating ([6]; 1/2 lb/A) was 1 (no injury). For the same compound, the plant injury rating ([6]; 1/4 lb/A) was 1 (no injury), the plant injury rating ([6]; 1 lb/A) was 1 (no injury) and the plant injury rating ([6]; 2 lb/A) was 2S. It also gave a plant injury rating ([6]; 4 lb/A) of 4BS, a plant injury rating ([6]; 8 lb/A) of 5D and a plant injury rating ([7]; 1/2 lb/A) of 2SB. The plant injury rating ([7]; 1/4 lb/A) was 2B, the plant injury rating ([7]; 1 lb/A, Hydrate) was 3BS and 4BS and the plant injury rating ([7]; 2 lb/A) was 5D. The plant injury rating ([7]; 4 lb/A) was 5D, the plant injury rating ([7]; 8 lb/A) was 5D and the plant injury rating ([8]; 1/2 lb/A) was 1 (no injury). For the same compound, the plant injury rating ([8]; 1/4 lb/A) was 1 (no injury), the plant injury rating ([8]; 1 lb/A, Hydrate) was 3S and 2S and the plant injury rating ([8]; 2 lb/A) was 4RS. It also gave a plant injury rating ([8]; 4 lb/A) of 4RS, a plant injury rating ([8]; 8 lb/A) of 5N and a plant injury rating ([9]; 1/2 lb/A) of 3BS. It also gave a plant injury rating ([9]; 1/4 lb/A) of 3BS, a plant injury rating ([9]; 2 lb/A) of 5D and a plant injury rating ([9]; 4 lb/A) of 5D. The plant injury rating ([9]; 8 lb/A) was 5D, the plant injury rating ([10]; 1/2 lb/A) was 1 (no injury) and the plant injury rating ([10]; 1/4 lb/A) was 1 (no injury). It also gave a plant injury rating ([10]; 2 lb/A) of 3BS, a plant injury rating ([10]; 4 lb/A) of 3BS and a plant injury rating ([10]; 8 lb/A) of 5D. The plant injury rating ([11]; 1/2 lb/A) was 1 (no injury), the plant injury rating ([11]; 1/4 lb/A) was 1 (no injury) and the plant injury rating ([11]; 1 lb/A) was 1 (no injury). It also gave a plant injury rating ([11]; 2 lb/A) of 2S, a plant injury rating ([11]; 4 lb/A) of 4BS and a plant injury rating ([11]; 8 lb/A) of 5D. The plant injury rating ([12]; 1/2 lb/A) was 1 (no injury), the plant injury rating ([12]; 1/4 lb/A) was 1 (no injury) and the plant injury rating ([12]; 1 lb/A) was 1 (no injury). For the same compound, the plant injury rating ([12]; 2 lb/A) was 1 (no injury), the plant injury rating ([12]; 4 lb/A) was 1 (no injury) and the plant injury rating ([12]; 8 lb/A) was 3SB. For the same compound, the plant injury rating ([13]; 1/2 lb/A) was 2B, the plant injury rating ([13]; 1/4 lb/A) was 2B and the plant injury rating ([13]; 2 lb/A) was 3BS. The plant injury rating ([13]; 4 lb/A) was 4BS, the plant injury rating ([13]; 8 lb/A) was 5D and the “Mexican Bean Beetle Feed. (feeding rating)” value ([14]; 100 ppm) was 0 (none of the leaves eaten). For the same compound, the “Mexican Bean Beetle Stom. (mortality rating)” value ([14]; 100 ppm) was 3 (100) and the “Mexican Bean Beetle Stom. (mortality rating)” value ([14]; 1000 ppm) was 3 (100).
`O=[N+]([O-])c1cc(Cl)cc2c1NC(O)(C(F)F)N2` (stereo not shown) [Example 5, 2-Hydroxy-2-(Difluoromethyl)-4-Nitro-6-Chlorobenzimidazoline, Calcium Salt] was tested, and the plant injury rating ([1]; 8 lb/A) was 2S, the plant injury rating ([2]; 1 lb/A) was 4BS and the plant injury rating ([2]; 2 lb/A) was 4BS. For the same compound, the plant injury rating ([2]; 4 lb/A) was 3BS, the plant injury rating ([2]; 8 lb/A) was 5D and the plant injury rating ([3]; 1 lb/A) was 2S. It also gave a plant injury rating ([3]; 2 lb/A) of 3BS, a plant injury rating ([3]; 4 lb/A) of 3BS and a plant injury rating ([3]; 8 lb/A) of 4BS. It also gave a plant injury rating ([4]; 1 lb/A) of 3BS, a plant injury rating ([4]; 2 lb/A) of 3BS and a plant injury rating ([4]; 4 lb/A) of 4BS. The plant injury rating ([4]; 8 lb/A) was 4BS, the plant injury rating ([5]; 8 lb/A) was 3R and the plant injury rating ([6]; 8 lb/A) was 4R. For the same compound, the plant injury rating ([7]; 1 lb/A) was 3BS, the plant injury rating ([7]; 2 lb/A) was 3BS and the plant injury rating ([7]; 4 lb/A) was 4BS. For the same compound, the plant injury rating ([7]; 8 lb/A) was 5D, the plant injury rating ([8]; 8 lb/A) was 3RS and the plant injury rating ([9]; 1 lb/A) was 3BS. The plant injury rating ([9]; 2 lb/A) was 3BS, the plant injury rating ([9]; 4 lb/A) was 4BS and the plant injury rating ([9]; 8 lb/A) was 5D. The plant injury rating ([10]; 1 lb/A) was 1 (no injury), the plant injury rating ([10]; 2 lb/A) was 2B and the plant injury rating ([10]; 4 lb/A) was 4BS. The plant injury rating ([10]; 8 lb/A) was 5D, the plant injury rating ([11]; 8 lb/A) was 3RS and the plant injury rating ([12]; 8 lb/A) was 1 (no injury). For the same compound, the plant injury rating ([13]; 1 lb/A) was 2BS, the plant injury rating ([13]; 2 lb/A) was 2BS and the plant injury rating ([13]; 4 lb/A) was 3BS. For the same compound, the plant injury rating ([13]; 8 lb/A) was 4BS and the “Mexican Bean Beetle Stom. (mortality rating)” value ([14]; 1000 ppm) was 3 (100).

From patent publication US4265901A, “2-Oxybenzimidazoline compounds” (priority 1979, dated 1981)
